Results as given in ChEMBL document CHEMBL1201862, “PubChem BioAssay data set” (2004).
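Interpolation was linear, between the two tested concentrations surrounding the appropriate level; five concentrations were tested over 48 hours in 96-well plates. Abbreviation: GI50, concentration required for 50% inhibition of growth.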 Active and inactive are the calls of the source. Rule as the data show it: active = GI50 up to about 1.1 µM and inactive = higher.

The molecules below were run on BT-549 (assay: growth of human tumour cells (NCI), 48 h).

SMILES	GI50
CC(C)(C)c1cc(Br)c(O)c(CN(Cc2cc(C(C)(C)C)cc(Br)c2O)C2CCCCC2)c1	15.8 µM (inactive)
CCOC(=O)C(C)c1nc2cc3cccnc3c(Cl)c2[nH]c1=O (stereo not given)	> 100 µM (inactive)
O=C(N/N=C1/C(=O)c2c3ccccc3cc3cccc1c23)c1cccc(Cl)c1	> 100 µM (inactive)
CCN1CN(c2ccccc2)C2(CCN(CC3COc4ccccc4O3)CC2)C1=O (stereo not given)	16 µM (inactive)
CC(Oc1ccccc1Cl)C(=O)NN1C(=O)CC(=O)N(c2ccccc2)C1=S (stereo not given)	54.1 µM (inactive)
COc1cccc(/C=C/c2cnc3ccccc3n2)c1OC	17.4 µM (inactive)
Clc1nc(Cl)c(-c2ccccc2)c(Cl)n1	2.61 µM (inactive)
O=C1Nc2ccccc2/C1=N/Nc1nc(-c2ccc([N+](=O)[O-])cc2)cs1	15.6 µM (inactive)
CC(C)/C(Cl)=N/OC(=O)Nc1cccc(C(F)(F)F)c1	3.64 µM (inactive)
O=[N+]([O-])c1nccn1CCCNCCCn1ccnc1[N+](=O)[O-]	> 100 µM (inactive)
O=C1CN(c2ccccc2)C(=O)CN1NCNN1CC(=O)N(c2ccccc2)CC1=O	> 100 µM (inactive)
Cc1ccc(S(=NS(=O)(=O)c2ccc(C)cc2)c2ccc(C)cc2)cc1	> 100 µM (inactive)
CCc1c2c([nH]c(=S)c1C#N)CCC2	> 100 µM (inactive)
S=c1[nH]n2c(CCCCCCCCc3nnc4sc(=S)[nH]n34)nnc2s1	> 100 µM (inactive)
CN(C)Cc1c(O)ccc2c1c1c(n2C)C(=O)c2ccccc2C1=O	11.5 µM (inactive)
Cc1c(C)c(S(=O)(=O)N(CCCN)OCCCN)c(C)c2c1OC(C)(C)C2	30.5 µM (inactive)
C[N+](C)(C)c1ncnc2c1ncn2C1CCCO1 (stereo not given)	> 100 µM (inactive)
C=CCN(c1cc(OC)c(NC(C)=O)cc1[N+](=O)[O-])S(C)(=O)=O	> 100 µM (inactive)
Cc1ccc2c(c1)C1(C)OC(C=CC1=O)O2 (stereo not given)	0.389 µM (active)
CC(=O)N1C(Nc2nccs2)CCN1c1ccccc1 (stereo not given)	> 10 µM (inactive)

SMILES	GI50
C/C=C\C(CC(=O)NCCc1c[nH]c2ccccc12)CC(=O)OC (stereo not given)	> 100 µM (inactive)
COC(=O)/C(C#N)=C(/NCCN)Nc1ccccc1	> 100 µM (inactive)
CN(C)/C=N/S(=O)(=O)c1nn2c(C=O)c(-c3ccccc3)nc2s1	4.65 µM (inactive)
CC(=O)C(C(=O)c1ccc(C)cc1)[C@H]1OC(C)(C)O[C@H]1[C@H]1COC(C)(C)O1 (stereo not given in full)	6.3 µM (inactive)
Cc1c(-c2ccccc2)nn2cc(-c3ccccc3)nnc12	25.2 µM (inactive)
Cc1ccc(NC(=O)c2cc(S(=O)(=O)Nc3n[nH]c(=O)n3-c3ccccc3)c(S)cc2Cl)cc1	> 100 µM (inactive)
CC(=O)Oc1ccc2oc(=O)cc(C)c2c1	> 100 µM (inactive)
Cc1ccc(Cc2n[nH]c(=O)n2-c2ccccc2)cc1	> 100 µM (inactive)
COc1ccc(/C=c2/sc3n(c2=O)C(c2ccccc2)C2(O)CCCCC2N=3)cc1 (stereo not given)	> 12.5 µM (inactive)
ClCCc1ccccc1CC1=NCCc2ccccc21	30.3 µM (inactive)
c1ccc2c(c1)Sc1nccc3ccnc-2c13	77.1 µM (inactive)
N#CCC1(c2ccc(Cl)cc2)NC(=O)c2ccccc21 (stereo not given)	> 100 µM (inactive)
O=c1c(Cc2ccc(Cl)cc2)nnc2sc(-c3ccc(-c4ccc(F)c(Cl)c4)o3)nn12	78.2 µM (inactive)
CN(C)c1ncc(-c2c[nH]c3ccccc23)nc1-c1c[nH]c2ccccc12	13.8 µM (inactive)
Cc1nc(N)sc1/N=N/c1ccccc1Br	24.7 µM (inactive)
COC(=O)n1c(=O)n(-c2ccccc2)c(=O)n1C(=O)OC	> 100 µM (inactive)
Cc1cc(C)c2nccc(NCCCN(C)C)c2c1[N+](=O)[O-]	35.5 µM (inactive)
O=C1c2cccc(O)c2C(=O)c2c(OC3OC(CO)C(O)C(O)C3O)cccc21 (stereo not given)	21.8 µM (inactive)
COC(=O)[C@]1(c2cc3ccccc3[nH]2)CC2CNC1C1OC(C)(C)OC21 (stereo not given in full)	> 100 µM (inactive)
CC(=O)Oc1ccc(/C=C/C(=O)O[C@@H](C(=O)O)[C@@H](OC(=O)/C=C/c2ccc(OC(C)=O)c(OC(C)=O)c2)C(=O)O)cc1OC(C)=O	> 100 µM (inactive)
